# Experimental data as given in patent US20230265151A1, “GIP/GLP1 CO-AGONIST COMPOUNDS” (priority 2020, published 2023).
# Read-outs that look alike come from different tables or passages of the source.
# Tests used:
# Format in all cases: cell-based
# hGIPR = molecular target: T1, hGIPR (Homo sapiens, UniProt P48546); assay: Functional cAMP formation (HTRF) in HEK-293 clonal cells expressing hGIPR, 0.1% bovine casein, without or with 1.0% human serum albumin; conditions: for EC50: geometric mean
# T1 construct: expressed in transfected cells
# T1 sequence (P48546 22-466): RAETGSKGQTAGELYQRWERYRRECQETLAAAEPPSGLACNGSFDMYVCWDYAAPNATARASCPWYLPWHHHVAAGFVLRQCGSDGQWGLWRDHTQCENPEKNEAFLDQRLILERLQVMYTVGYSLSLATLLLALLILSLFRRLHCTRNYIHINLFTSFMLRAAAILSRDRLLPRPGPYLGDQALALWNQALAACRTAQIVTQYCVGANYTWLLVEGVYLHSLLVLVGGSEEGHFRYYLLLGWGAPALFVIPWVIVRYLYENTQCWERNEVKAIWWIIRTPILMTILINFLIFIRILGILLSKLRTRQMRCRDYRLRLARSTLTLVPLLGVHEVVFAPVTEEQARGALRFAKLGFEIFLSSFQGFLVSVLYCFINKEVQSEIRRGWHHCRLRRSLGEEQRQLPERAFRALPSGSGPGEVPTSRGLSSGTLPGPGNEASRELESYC
# Summary of the method: (§1)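 Cells were stimulated with peptide for 30 min at 37° C, then lysed in buffer carrying cAMP-d2 and anti-cAMP Eu3+-cryptate for a competitive HTRF read after at least 60 min at room temperature. The 665/620 nm ratio was converted to nM cAMP against a standard curve.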
# hGCGR = molecular target: T2, hGCGR (Homo sapiens, UniProt P47871); assay: Functional cAMP formation (HTRF) in HEK-293 clonal cells expressing hGCGR, 0.1% bovine casein, without or with 1.0% human serum albumin
# T2 construct: expressed in transfected cells
# T2 sequence (P47871 26-477): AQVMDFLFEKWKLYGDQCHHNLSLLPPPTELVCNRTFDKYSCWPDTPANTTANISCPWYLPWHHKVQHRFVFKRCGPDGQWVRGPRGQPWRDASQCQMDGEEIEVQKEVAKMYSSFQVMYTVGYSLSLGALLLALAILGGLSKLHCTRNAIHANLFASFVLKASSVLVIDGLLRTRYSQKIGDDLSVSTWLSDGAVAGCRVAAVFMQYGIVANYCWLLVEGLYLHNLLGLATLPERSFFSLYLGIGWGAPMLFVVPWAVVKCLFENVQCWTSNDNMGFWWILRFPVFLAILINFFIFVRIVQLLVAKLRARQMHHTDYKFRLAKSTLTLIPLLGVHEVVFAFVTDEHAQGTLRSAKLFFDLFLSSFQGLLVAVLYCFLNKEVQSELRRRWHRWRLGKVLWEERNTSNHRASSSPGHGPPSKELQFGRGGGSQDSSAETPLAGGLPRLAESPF
# Summary of the method: as §1
# hGLP-1R = hGLP-1R (Homo sapiens, UniProt P43220); assay: Functional cAMP formation (HTRF) in HEK-293 clonal cells expressing hGLP-1R, 0.1% bovine casein, without or with 1.0% human serum albumin; set-up: expressed in transfected cells; conditions: for Emax: percent of maximal response to GLP-1(7-36)NH2; for EC50: geometric mean
# Sequence of hGLP-1R (P43220 24-463): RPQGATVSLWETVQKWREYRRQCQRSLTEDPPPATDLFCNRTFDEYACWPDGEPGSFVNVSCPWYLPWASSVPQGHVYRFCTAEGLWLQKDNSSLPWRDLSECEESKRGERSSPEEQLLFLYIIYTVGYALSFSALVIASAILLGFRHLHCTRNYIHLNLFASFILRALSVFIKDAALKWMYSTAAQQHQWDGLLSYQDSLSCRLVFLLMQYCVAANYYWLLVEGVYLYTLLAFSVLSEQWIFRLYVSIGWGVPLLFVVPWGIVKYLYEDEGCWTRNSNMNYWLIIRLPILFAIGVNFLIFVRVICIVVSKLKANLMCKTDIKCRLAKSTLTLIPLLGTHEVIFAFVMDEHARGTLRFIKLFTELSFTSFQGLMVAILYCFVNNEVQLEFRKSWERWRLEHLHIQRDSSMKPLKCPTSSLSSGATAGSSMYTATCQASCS
# Summary of the method: as §1
# [1] = HEK293, 0.1% bovine casein and 1.0% human serum albumin, 37° C., percent of maximal response to GIP(1-42)NH2, read-out: hGIPR Emax, % ± SEM
# [2] = HEK293, percent of maximal response to GIP(1-42)NH2, 37° C., 0.1% bovine casein, arithmetic mean, read-out: hGIPR Emax, % ± SEM
# [3] = cAMP, incubated at 37° C., 0.1% bovine casein (no human serum albumin), read-out: hGIPR EC50, nM (SEM, n)
# [4] = 0.1% bovine casein and 1.0% human serum albumin, 37° C., geometric mean, read-out: hGCGR EC50, nM (SEM, n)
# [5] = cAMP, incubated at 37° C., 0.1% bovine casein (no human serum albumin), geometric mean, read-out: hGCGR EC50, nM (SEM, n)
smiles,measurement,setting,value
CC[C@H](C)[C@H](NC(=O)[C@H](CC(C)C)NC(=O)[C@](C)(Cc1ccc(O)cc1)NC(=O)[C@@H](CCC(=O)O)NC(=O)[C@@H](NC(=O)[C@H](Cc1ccccc1)NC(=O)[C@H](CCC(=O)O)NC(=O)C(C)(C)NC(=O)[C@H](CCC(N)=O)NC(=O)[C@H](C)NC(=O)[C@H](CCCCNC(=O)COCCOCCNC(=O)CC[C@H](NC(=O)CCCCCCCCCCCCC(=O)O)C(=O)O)NC(=O)[C@H](CCCN)NC(=O)[C@H](CC(=O)O)NC(=O)[C@H](CC(C)C)NC(=O)[C@](C)(CC(C)C)NC(=O)[C@@H](NC(=O)C(C)(C)NC(=O)[C@@H](NC(=O)[C@H](CC(=O)O)NC(=O)[C@H](CO)NC(=O)[C@@H](NC(=O)[C@](C)(Cc1ccccc1F)NC(=O)[C@@H](NC(=O)CNC(=O)[C@H](CCC(=O)O)NC(=O)C(C)(C)NC(=O)[C@@H](N)Cc1ccc(O)cc1)[C@@H](C)O)[C@@H](C)O)C(C)C)[C@@H](C)CC)[C@@H](C)CC)C(=O)N[C@@H](CCCCNC(=O)COCCOCCNC(=O)CC[C@H](NC(=O)CCCCCCCCCCCCC(=O)O)C(=O)O)C(=O)NCC(=O)NCC(=O)N1CCC[C@H]1C(=O)N[C@@H](CO)C(=O)N[C@@H](CO)C(=O)NCC(=O)N[C@@H](C)C(=O)N1CCC[C@H]1C(=O)N1CCC[C@H]1C(=O)N1CCC[C@H]1C(=O)N[C@@H](CO)C(N)=O [Example 399],Emax,"hGIPR; HEK293, cAMP, 37° C., 0.1% bovine casein and 1.0% human serum albumin, percent of maximal response to GIP(1-42)NH2, read-out: hGIPR Emax, % ± SEM",86.8%
same,EC50,"hGIPR; cAMP, 37° C., 0.1% bovine casein (no human serum albumin), read-out: hGIPR EC50, nM (SEM, n)",0.0186 nM
same,EC50,"hGCGR; cAMP, 37° C., 0.1% bovine casein (no human serum albumin), geometric mean, read-out: hGCGR EC50, nM (SEM, n)",> 9950 nM
same,EC50,"hGCGR; cAMP, 37° C., 0.1% bovine casein and 1.0% human serum albumin, geometric mean (SEM, n), read-out: hGCGR EC50, nM (SEM, n)",> 9950 nM
same,Emax,"hGLP-1R; HEK293, cAMP, 37° C., 0.1% bovine casein and 1.0% human serum albumin, read-out: hGLP-1R Emax, % ± SEM",89.7%
same,Emax,"hGLP-1R; HEK293, cAMP, 37° C., 0.1% bovine casein, arithmetic mean, read-out: hGLP-1R Emax, % ± SEM",91.9%
same,EC50,"hGLP-1R; cAMP, 37° C., 0.1% bovine casein (no human serum albumin), read-out: hGLP-1R EC50, nM (SEM, n)",0.259 nM
CC[C@H](C)[C@H](NC(=O)[C@H](CC(C)C)NC(=O)[C@](C)(Cc1ccc(O)cc1)NC(=O)[C@@H](CCC(=O)O)NC(=O)[C@@H](NC(=O)[C@H](Cc1ccccc1)NC(=O)[C@H](CCCCNC(=O)COCCOCCNC(=O)COCCOCCNC(=O)CCCCCCCCCOc1ccc(C(=O)O)cc1)NC(=O)C(C)(C)NC(=O)[C@H](CCC(N)=O)NC(=O)[C@H](C)NC(=O)[C@H](CCCCNC(=O)COCCOCCNC(=O)COCCOCCNC(=O)CCCCCCCCCOc1ccc(C(=O)O)cc1)NC(=O)[C@H](CCCN)NC(=O)[C@H](CC(=O)O)NC(=O)[C@H](CC(C)C)NC(=O)[C@](C)(CC(C)C)NC(=O)[C@@H](NC(=O)C(C)(C)NC(=O)[C@H](Cc1ccncc1)NC(=O)[C@H](CC(=O)O)NC(=O)[C@H](CO)NC(=O)[C@@H](NC(=O)[C@](C)(Cc1ccccc1F)NC(=O)[C@@H](NC(=O)CNC(=O)[C@H](CCC(=O)O)NC(=O)C(C)(C)NC(=O)[C@@H](N)Cc1ccc(O)cc1)[C@@H](C)O)[C@@H](C)O)[C@@H](C)CC)[C@@H](C)CC)C(=O)N[C@@H](CCC(=O)O)C(=O)NCC(=O)NCC(=O)N1CCC[C@H]1C(=O)N[C@@H](CO)C(=O)N[C@@H](CO)C(=O)NCC(=O)N[C@@H](C)C(=O)N1CCC[C@H]1C(=O)N1CCC[C@H]1C(=O)N1CCC[C@H]1C(=O)N[C@@H](CO)C(N)=O [Example 392],Emax,"hGIPR; HEK293, read-out: hGIPR Emax, % ± SEM, cAMP, 37° C., 0.1% bovine casein and 1.0% human serum albumin, percent of maximal response to GIP(1-42)NH2",85.7%
same,Emax,"hGIPR; HEK293, read-out: hGIPR Emax, % ± SEM, cAMP, 37° C., 0.1% bovine casein, percent of maximal response to GIP(1-42)NH2, arithmetic mean",94.4%
same,EC50,"hGIPR; hGIPR EC50, nM (SEM, n), cAMP, 37° C., 0.1% bovine casein (no human serum albumin)",0.0107 nM
same,EC50,"hGCGR; hGCGR EC50, nM (SEM, n), cAMP, 37° C., 0.1% bovine casein (no human serum albumin), geometric mean",> 9950 nM
same,EC50,"hGCGR; hGCGR EC50, nM (SEM, n), cAMP, 37° C., 0.1% bovine casein and 1.0% human serum albumin, geometric mean (SEM, n)",> 9950 nM
same,Emax,"hGLP-1R; HEK293, read-out: hGLP-1R Emax, % ± SEM, cAMP, 37° C., 0.1% bovine casein, arithmetic mean",97.9%
same,EC50,"hGLP-1R; hGLP-1R EC50, nM (SEM, n), cAMP, 37° C., 0.1% bovine casein (no human serum albumin)",0.521 nM
CC[C@H](C)[C@H](NC(=O)[C@H](CC(C)C)NC(=O)[C@](C)(Cc1ccc(O)cc1)NC(=O)[C@@H](CCC(=O)O)NC(=O)[C@@H](NC(=O)[C@H](Cc1ccccc1)NC(=O)[C@H](CCC(=O)O)NC(=O)C(C)(C)NC(=O)[C@H](CCC(N)=O)NC(=O)[C@H](C)NC(=O)[C@H](CCCCNC(=O)COCCOCCNC(=O)[C@@H](N)CCCCNC(=O)CC[C@H](NC(=O)CCCCCCCCCCCCC(=O)O)C(=O)O)NC(=O)[C@H](CCCN)NC(=O)[C@H](CC(=O)O)NC(=O)[C@H](CC(C)C)NC(=O)[C@](C)(CC(C)C)NC(=O)[C@@H](NC(=O)[C@H](CO)NC(=O)[C@H](Cc1ccncc1)NC(=O)[C@H](CC(=O)O)NC(=O)[C@H](CO)NC(=O)[C@@H](NC(=O)[C@](C)(Cc1ccccc1F)NC(=O)[C@@H](NC(=O)CNC(=O)[C@H](CCC(=O)O)NC(=O)C(C)(C)NC(=O)[C@@H](N)Cc1ccc(O)cc1)[C@@H](C)O)[C@@H](C)O)[C@@H](C)CC)[C@@H](C)CC)C(=O)N[C@@H](CCC(=O)O)C(=O)NCC(=O)NCC(=O)N[C@@H](CCCCNC(=O)COCCOCCNC(=O)[C@@H](N)CCCCNC(=O)CC[C@H](NC(=O)CCCCCCCCCCCCC(=O)O)C(=O)O)C(=O)N[C@@H](CO)C(=O)N[C@@H](CO)C(=O)NCC(=O)N[C@@H](C)C(=O)N1CCC[C@H]1C(=O)N1CCC[C@H]1C(=O)N1CCC[C@H]1C(=O)N[C@@H](CO)C(N)=O [Example 35],EC50,"hGIPR; 0.1% bovine casein and 1.0% human serum albumin, 37° C., read-out: hGIPR EC50, nM (SEM, n)",0.35 nM
same,Emax,hGIPR; [1],91.7 ± 1.28%
same,Emax,hGIPR; [2],97 ± 2.32%
same,EC50,hGIPR; [3],0.0162 nM
same,EC50,hGCGR; [4],> 9950 nM
same,EC50,hGCGR; [5],> 9950 nM
same,EC50,"hGLP-1R; 0.1% bovine casein and 1.0% human serum albumin, 37° C., read-out: hGLP-1R EC50, nM (SEM, n)",16.4 nM
CC[C@H](C)[C@H](NC(=O)[C@H](CC(C)C)NC(=O)[C@](C)(Cc1ccc(O)cc1)NC(=O)[C@@H](CCC(=O)O)NC(=O)[C@@H](NC(=O)[C@H](Cc1ccccc1)NC(=O)[C@H](CCC(=O)O)NC(=O)C(C)(C)NC(=O)[C@H](CCC(N)=O)NC(=O)[C@H](C)NC(=O)[C@H](CCCCNC(=O)COCCOCCNC(=O)COCCOCCNC(=O)CC[C@H](NC(=O)CCCCCCCCCCCCC(=O)O)C(=O)O)NC(=O)[C@H](CCCN)NC(=O)[C@H](CC(=O)O)NC(=O)[C@H](CC(C)C)NC(=O)[C@](C)(CC(C)C)NC(=O)[C@@H](NC(=O)C(C)(C)NC(=O)[C@H](Cc1ccncc1)NC(=O)[C@H](CC(=O)O)NC(=O)[C@H](CO)NC(=O)[C@@H](NC(=O)[C@](C)(Cc1ccccc1F)NC(=O)[C@@H](NC(=O)CNC(=O)[C@H](CCC(=O)O)NC(=O)C(C)(C)NC(=O)[C@@H](N)Cc1ccc(O)cc1)[C@@H](C)O)[C@@H](C)O)[C@@H](C)CC)[C@@H](C)CC)C(=O)N[C@@H](CCC(=O)O)C(=O)NCC(=O)NCC(=O)N[C@@H](CCCCNC(=O)COCCOCCNC(=O)COCCOCCNC(=O)CC[C@H](NC(=O)CCCCCCCCCCCCC(=O)O)C(=O)O)C(=O)N[C@@H](CO)C(=O)N[C@@H](CO)C(=O)NCC(=O)N[C@@H](C)C(=O)N1CCC[C@H]1C(=O)N1CCC[C@H]1C(=O)N1CCC[C@H]1C(=O)N[C@@H](CO)C(N)=O [Example 89],Emax,hGIPR; [1],94.2%
same,Emax,hGIPR; [2],88.9 ± 3.76%
same,EC50,hGIPR; [3],0.0301 nM
same,EC50,hGCGR; [4],> 9950 nM
same,EC50,hGCGR; [5],> 9950 nM
same,EC50,"hGLP-1R; cAMP, incubated at 37° C., 0.1% bovine casein (no human serum albumin), read-out: hGLP-1R EC50, nM (SEM, n)",1.03 nM
